Measured values published in patent US20030215462A1, “Use of UGT inhibitors to increase bioavailability” (priority 2001, published 2003).

How the values were obtained:
UGT1A3 = biological target: T1, UGT1A3 (Homo sapiens, UniProt P35503); assay: Inhibition of raloxifene glucuronidation by recombinant UGT1A3 Supersomes; settings: human; for activity at 15 min, 10 µM: inhibitor 10 μM; for activity at 15 min, 25 µM: inhibitor 25 μM; for activity at 15 min, 50 µM: inhibitor 50 μM
T1 sequence (P35503 29-534): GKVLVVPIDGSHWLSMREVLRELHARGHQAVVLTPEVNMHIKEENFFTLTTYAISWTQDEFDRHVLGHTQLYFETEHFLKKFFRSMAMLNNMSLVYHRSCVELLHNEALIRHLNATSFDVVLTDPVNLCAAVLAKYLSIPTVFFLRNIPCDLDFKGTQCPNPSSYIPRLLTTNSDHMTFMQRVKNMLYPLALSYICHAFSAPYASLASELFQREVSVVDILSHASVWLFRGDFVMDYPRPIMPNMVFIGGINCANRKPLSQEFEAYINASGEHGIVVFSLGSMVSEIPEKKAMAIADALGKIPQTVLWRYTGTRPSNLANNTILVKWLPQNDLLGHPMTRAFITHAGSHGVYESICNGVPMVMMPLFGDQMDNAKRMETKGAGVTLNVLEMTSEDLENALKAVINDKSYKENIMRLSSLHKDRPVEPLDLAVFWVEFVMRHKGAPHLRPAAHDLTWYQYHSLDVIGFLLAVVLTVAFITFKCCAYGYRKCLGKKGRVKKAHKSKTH
Description: Compounds were eluted using a binary solvent gradient system. Solvent A was water brought to pH 8 with NH4OH. Solvent B was methanol. Solvent flow rate was 1 ml/min and the column temperature was maintained at 50° C. Detection was at 280 nm. […] The system was then returned to the initial conditions and equilibrated for 3 min.

[1] = system: T2, UGT enzymes of human liver microsomes; assay: Inhibition of estradiol (E2) glucuronidation in human liver microsomes; type: biochemical; settings: liver 032101; E2 50 μM; inhibitor 100 μM
T2 construct: residual metabolism (% of control), E2-17-β-D-glucuronide; other: liver 032101; residual metabolism (% of control), E2-17-β-D-glucuronide
Description: (§1) Compounds were eluted using a binary solvent gradient system where solvent A was dilute phosphoric acid (pH 3) and solvent B was 80:20 acetonitrile-methanol. […] Detection was at 280 nm.

[2] = system: UGT enzymes of human liver microsomes; assay: as above; type: biochemical; settings: E2 50 μM
Description: as §1

[3] = system: T3, UGT enzymes of human liver microsomes; assay: as above; type: biochemical; settings: liver 032101; E2 50 μM; inhibitor 100 μM
T3 construct: residual metabolism (% of control), E2-3-β-D-glucuronide; other: liver 032101; residual metabolism (% of control), E2-3-β-D-glucuronide
Description: as §1

[4] = system: UGT enzymes of pooled human jejunum microsomes; assay: Inhibition of estradiol (E2) glucuronidation in pooled human jejunum microsomes; type: biochemical; settings: jejunum HJ61, E2 50 μM
Description: as §1

[5] = system: UGT enzymes of human liver microsomes; assay: Inhibition of raloxifene glucuronidation (G1, G2) in human liver microsomes; type: biochemical; settings: for % of control metabolism (SD, n = 3), raloxifene glucuronide G1 / % of control metabolism (SD, n = 3), raloxifene glucuronide G2: raloxifene 50 μM, human liver microsomes 250 μg/ml, 15 min
Description: Compounds were eluted using a binary solvent gradient system. […] Solvent B was methanol. […] Detection was at 280 nm.

[6] = Supersomes with recombinant human UGT1A3, pH 7.5, probe raloxifene 50 μM, formation of glucuronide G1, % of control metabolism, raloxifene G1, UGT1A3
[7] = Supersomes with recombinant human UGT1A3, pH 7.5, probe raloxifene 50 μM, formation of glucuronide G2, % of control metabolism, raloxifene G2, UGT1A3
[8] = recombinant UGT1A3 Supersomes, pH 7.5, probe raloxifene 50 μM (formation of glucuronide G1), Inhibition of raloxifene glucuronidation, G1, UGT1A3, G1, raloxifene 50 μM, 250 μg/ml Supersomes, 1 mM UDPGA, 15 min
[9] = recombinant UGT1A3 Supersomes, pH 7.5, probe raloxifene 50 μM (formation of glucuronide G2), Inhibition of raloxifene glucuronidation, G2, UGT1A3, G2, raloxifene 50 μM, 250 μg/ml Supersomes, 1 mM UDPGA, 15 min
[10] = liver lot 032101, inhibitor 10 μM

CC/C(=C(/CC)c1ccc(O)cc1)c1ccc(O)cc1 [Diethylstilbestrol, reference compound]
activity at 15 min, 10 µM (UGT1A3; [6]): 65%
activity at 15 min, 25 µM (UGT1A3; [6]): 32%
activity at 15 min, 50 µM (UGT1A3; [6]): 14%
activity at 15 min, 10 µM (UGT1A3; [7]): 74%
activity at 15 min, 25 µM (UGT1A3; [7]): 48%
activity at 15 min, 50 µM (UGT1A3; [7]): 21%
activity at 15 min, 10 µM (UGT1A3; [8]): 65%
activity at 15 min, 25 µM (UGT1A3; [8]): 32%
activity at 15 min, 50 µM (UGT1A3; [8]): 14%
activity at 15 min, 10 µM (UGT1A3; [9]): 74%
activity at 15 min, 25 µM (UGT1A3; [9]): 48%
activity at 15 min, 50 µM (UGT1A3; [9]): 21%
residual metabolism (% of control), E2-17-β-D-glucuronide [1]: 217 (5) %
residual metabolism (% of control), E2-3-β-D-glucuronide ([2]; liver 032101, inhibitor 1 μM): 85 (1), %
residual metabolism (% of control), E2-17-β-D-glucuronide ([2]; liver 032101, inhibitor 1 μM): 361 (6) %
residual metabolism (% of control), E2-3-β-D-glucuronide ([2]; liver 032101, inhibitor 10 μM): 57 (4), %
residual metabolism (% of control), E2-17-β-D-glucuronide ([2]; liver 032101, inhibitor 10 μM): 545 (32) %
residual metabolism (% of control), E2-3-β-D-glucuronide ([2]; liver 062101, inhibitor 1 μM): 86 (3) %
residual metabolism (% of control), E2-17-β-D-glucuronide ([2]; liver 062101, inhibitor 1 μM): 254 (2) %
residual metabolism (% of control), E2-3-β-D-glucuronide ([2]; liver 062101, inhibitor 10 μM): 71 (2) %
residual metabolism (% of control), E2-17-β-D-glucuronide ([2]; liver 062101, inhibitor 10 μM): 446 (7) %
residual metabolism (% of control), E2-3-β-D-glucuronide [3]: 69 (1), %
residual metabolism (% of control), E2-3-β-D-glucuronide ([4]; inhibitor 1 μM): 86 (2) %
residual metabolism (% of control), E2-17-β-D-glucuronide ([4]; inhibitor 1 μM): 108 (5) %
residual metabolism (% of control), E2-3-β-D-glucuronide ([4]; inhibitor 10 μM): 53 (4) %
residual metabolism (% of control), E2-17-β-D-glucuronide ([4]; inhibitor 10 μM): 78 (3) %
residual metabolism (% of control), E2-3-β-D-glucuronide ([4]; inhibitor 100 μM): 5 (1) %
residual metabolism (% of control), E2-17-β-D-glucuronide ([4]; inhibitor 100 μM): 24 (4) %
% of control metabolism (SD, n = 3), raloxifene glucuronide G1 ([5]; inhibitor 2 μM): 94 (6) %
% of control metabolism (SD, n = 3), raloxifene glucuronide G1 ([5]; inhibitor 5 μM): 83 (1) %
% of control metabolism (SD, n = 3), raloxifene glucuronide G1 ([5]; inhibitor 10 μM): 58 (3) %
% of control metabolism (SD, n = 3), raloxifene glucuronide G1 ([5]; inhibitor 25 μM): 36 (2) %
% of control metabolism (SD, n = 3), raloxifene glucuronide G1 ([5]; inhibitor 50 μM): 14 (1) %
% of control metabolism (SD, n = 3), raloxifene glucuronide G1 ([5]; inhibitor 100 μM): 8 (0) %
% of control metabolism (SD, n = 3), raloxifene glucuronide G1 ([5]; inhibitor 500 μM): 0 (0) %
% of control metabolism (SD, n = 3), raloxifene glucuronide G2 ([5]; inhibitor 2 μM): 107 (5) %
% of control metabolism (SD, n = 3), raloxifene glucuronide G2 ([5]; inhibitor 5 μM): 109 (1) %
% of control metabolism (SD, n = 3), raloxifene glucuronide G2 ([5]; inhibitor 10 μM): 111 (7) %
% of control metabolism (SD, n = 3), raloxifene glucuronide G2 ([5]; inhibitor 25 μM): 100 (5) %
% of control metabolism (SD, n = 3), raloxifene glucuronide G2 ([5]; inhibitor 50 μM): 58 (2) %
% of control metabolism (SD, n = 3), raloxifene glucuronide G2 ([5]; inhibitor 100 μM): 43 (0) %
% of control metabolism (SD, n = 3), raloxifene glucuronide G2 ([5]; inhibitor 500 μM): 0 (0) %
% of control metabolism, raloxifene G1 [5, 10]: 70 (2) %
% of control metabolism, raloxifene G2 [5, 10]: 96 (1) %
